Measured values published in article PMC6918025, “Genomewide and Enzymatic Analysis Reveals Efficient D-Galacturonic Acid Metabolism in the Basidiomycete Yeast Rhodosporidium toruloides” (mSystems, 2019).
One block for each molecule: values may come before it.

Tests used:
Format in all cases: biochemical, Rhodotorula toruloides
[1] = test system: T1, RTO4_9774 (L-glyceraldehyde reductase); test: NADPH loss at […] nm; conditions: 0.3 mM NADPH, pH 7, 30°C
T1 construct: gene GaaD

[2] = test system: RTO4_11882 (D-galUA reductase, GAR1 homolog); test: NADPH loss at […] nm; conditions: 0.3 mM NADPH, pH 7, 30°C
[3] = test system: T2, RTO4_12062 (L-galactonate dehydratase); test: semicarbazide assay at […] nm; conditions: 5 mM MgCl2, 50 mM sodium phosphate pH 7.0; tag removed
T2 construct: gene GaaB; full-length, N-terminal HIS6-TEV tag removed by TEV protease, expressed in E. coli Rosetta, IMAC

Km [1]: 0.9 mM
Compound: O=C[C@@H](O)CO [L-glyceraldehyde]

Km [2]: ~7 mM
Compound: O=C(O)[C@H]1OC(O)[C@H](O)[C@@H](O)[C@H]1O (stereo partly drawn) [D-galUA]

Km [3]: 5.8 mM
Compound: O=C(O)[C@@H](O)[C@H](O)[C@H](O)[C@@H](O)CO [L-galactonate]
